According to patent US8685720B2, “Engineered cellular pathways for programmed autoregulation of differentiation” (The Trustees of Princeton University, priority 2006, dated 2014):
Entries after “also recorded” stand apart in the source; their conditions may differ.

System: mammalian version of LuxR in 293FT cells
Assay: 30C6HSL detection by mammalian receiver cells expressing chimeric LuxR-activator
Assay type: cell-based
Conditions: P65-LuxR fusion, synthetic lux promoter, exogenous 30C6HSL
Excerpt: FIG. 2: (a) 30C6HSL synthesis by mammalian 293FT cells. Supernatant from the cells' growth media was collected and filter sterilized. Histograms show the fluorescence intensities of bacterial cells sensitive to 30C6HSL grown in the filtered supernatant, expressing green fluorescent protein due to 30C6HSL from the mammalian cells. (b) 30C6HSL detection by mammalian receiver cells. […] (c) Controlled stem cell differentiation with genetically inducible systems. Three different lentiviral genetic constructs were built, enabling exogenous chemical induction into myoblasts, adipocytes, or maintenance of stem cell properties. […] In addition, the marker protein for myoblasts, dystrophin, was expressed from these cells (data not shown). […] In a separate experiment, induced expression of Nanog supplanted the need for a growth factor usually required to maintain the overall character of mES cells.
The 30C6HSL detection pathway consists of a signal transducer that binds 30C6HSL and activates transcription of genes controlled by a synthetic lux promoter. The 30C6HSL signal transducer is a chimeric LuxR-activator protein created by the fusion of a P65 mammalian activation domain to a codon optimized mammalian version of a bacterial LuxR.

`CCCC(=O)CC(=O)N[C@H]1CCOC1=O` [30C6HSL] was tested. Which “response (EGFP expression) to the addition of 30C6HSL” value did it give?
The value was “strong response; also recorded: express EGFP only upon induction with exogenous 30C6HSL”.
